According to ChEMBL document CHEMBL5465560, “Selectivity Literature for EUbOPEN Chemogenomic Library” (2024):
One block for each molecule: values may come before it.

What was measured:
[1] = target: Activin receptor type-1-like (Homo sapiens) (UniProt P37023); test: Selectivity interaction (KinomeScan (DiscoverX)) EUB0001049a ACVRL1; conditions: at 1 µM
[2] = target: Ribosomal protein S6 kinase alpha-2 (Homo sapiens) (UniProt Q15349); test: Selectivity interaction (Ambit KINOMEscan and KiNATiv profiling in Jurkat cells) EUB0000090b RPS6KA2; format: cell-based; conditions: at 1 µM
[3] = target: Serine/threonine-protein kinase SIK2 (Homo sapiens) (UniProt Q9H0K1); test: Selectivity interaction (Kinase panel (Invitrogen)) EUB0000639a SIK2; conditions: at 200 nM
[4] = target: Phosphatidylinositol 4,5-bisphosphate 3-kinase catalytic subunit beta isoform (Homo sapiens) (UniProt P42338); test: Selectivity interaction (Adapta Assay) EUB0001632a PIK3CB; conditions: at 10 µM
[5] = target: Protein kinase C theta type (Homo sapiens, UniProt Q04759); test: Selectivity interaction (KinomeScan (DiscoverX)) EUB0000595a PRKCQ; conditions: at 10 µM
[6] = target: Tyrosine-protein kinase Fyn (Homo sapiens) (UniProt P06241); conditions: at 10 µM
[7] = target: Mitogen-activated protein kinase kinase kinase 20 (Homo sapiens) (UniProt Q9NYL2); test: Selectivity interaction (KinomeScan (DiscoverX)) EUB0000229b MAP3K20; conditions: at 10 µM
[8] = target: T1, Phosphatidylinositol 3-kinase C2 domain-containing subunit gamma (Homo sapiens) (UniProt O75747); test: Selectivity interaction (Kinase panel (Eurofins)) EUB0001564a PIK3C2G; conditions: at 1 µM
T1 sequence (whole entry): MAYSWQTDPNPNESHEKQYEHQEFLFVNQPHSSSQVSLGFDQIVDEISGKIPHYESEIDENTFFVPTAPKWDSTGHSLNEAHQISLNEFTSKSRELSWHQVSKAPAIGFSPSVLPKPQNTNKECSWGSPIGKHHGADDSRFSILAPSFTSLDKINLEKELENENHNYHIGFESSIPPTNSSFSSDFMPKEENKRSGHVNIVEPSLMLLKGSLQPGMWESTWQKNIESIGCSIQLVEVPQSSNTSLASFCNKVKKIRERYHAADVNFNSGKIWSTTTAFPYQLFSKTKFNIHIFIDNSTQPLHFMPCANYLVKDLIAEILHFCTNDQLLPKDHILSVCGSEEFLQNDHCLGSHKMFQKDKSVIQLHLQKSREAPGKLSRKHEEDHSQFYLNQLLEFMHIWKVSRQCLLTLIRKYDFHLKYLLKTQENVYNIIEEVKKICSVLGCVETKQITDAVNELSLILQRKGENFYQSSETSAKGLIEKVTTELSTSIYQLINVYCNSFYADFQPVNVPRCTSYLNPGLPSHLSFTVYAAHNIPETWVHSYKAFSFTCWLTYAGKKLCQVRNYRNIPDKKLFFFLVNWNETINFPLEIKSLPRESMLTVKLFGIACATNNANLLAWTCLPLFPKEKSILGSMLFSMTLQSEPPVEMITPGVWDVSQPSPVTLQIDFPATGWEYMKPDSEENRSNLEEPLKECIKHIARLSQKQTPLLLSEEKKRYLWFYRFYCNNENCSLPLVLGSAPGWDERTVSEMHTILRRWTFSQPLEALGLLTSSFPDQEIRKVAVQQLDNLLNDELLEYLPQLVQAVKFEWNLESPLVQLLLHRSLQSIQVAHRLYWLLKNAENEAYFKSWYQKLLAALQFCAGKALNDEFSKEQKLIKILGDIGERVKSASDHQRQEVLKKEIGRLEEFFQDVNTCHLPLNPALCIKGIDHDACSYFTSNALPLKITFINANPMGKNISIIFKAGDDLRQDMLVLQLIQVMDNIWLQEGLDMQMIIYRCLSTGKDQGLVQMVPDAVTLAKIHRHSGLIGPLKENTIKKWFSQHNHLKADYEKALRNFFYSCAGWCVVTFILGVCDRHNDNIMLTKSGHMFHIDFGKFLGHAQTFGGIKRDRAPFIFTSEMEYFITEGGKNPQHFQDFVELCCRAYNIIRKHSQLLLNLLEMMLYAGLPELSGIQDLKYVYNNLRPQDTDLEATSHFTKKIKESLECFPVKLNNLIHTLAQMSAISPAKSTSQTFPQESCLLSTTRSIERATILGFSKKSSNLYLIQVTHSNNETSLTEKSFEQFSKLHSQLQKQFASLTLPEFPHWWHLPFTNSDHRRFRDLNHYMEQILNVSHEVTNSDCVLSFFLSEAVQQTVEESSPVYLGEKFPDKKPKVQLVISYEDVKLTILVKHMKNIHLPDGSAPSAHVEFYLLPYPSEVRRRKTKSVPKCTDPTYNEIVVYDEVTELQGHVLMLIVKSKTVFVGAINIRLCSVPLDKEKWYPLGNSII

[9] = target: T2, Serine/threonine-protein kinase ICK (Homo sapiens) (UniProt Q9UPZ9); test: Selectivity interaction (KinomeScan (DiscoverX)) EUB0000045b ICK
T2 sequence (whole entry): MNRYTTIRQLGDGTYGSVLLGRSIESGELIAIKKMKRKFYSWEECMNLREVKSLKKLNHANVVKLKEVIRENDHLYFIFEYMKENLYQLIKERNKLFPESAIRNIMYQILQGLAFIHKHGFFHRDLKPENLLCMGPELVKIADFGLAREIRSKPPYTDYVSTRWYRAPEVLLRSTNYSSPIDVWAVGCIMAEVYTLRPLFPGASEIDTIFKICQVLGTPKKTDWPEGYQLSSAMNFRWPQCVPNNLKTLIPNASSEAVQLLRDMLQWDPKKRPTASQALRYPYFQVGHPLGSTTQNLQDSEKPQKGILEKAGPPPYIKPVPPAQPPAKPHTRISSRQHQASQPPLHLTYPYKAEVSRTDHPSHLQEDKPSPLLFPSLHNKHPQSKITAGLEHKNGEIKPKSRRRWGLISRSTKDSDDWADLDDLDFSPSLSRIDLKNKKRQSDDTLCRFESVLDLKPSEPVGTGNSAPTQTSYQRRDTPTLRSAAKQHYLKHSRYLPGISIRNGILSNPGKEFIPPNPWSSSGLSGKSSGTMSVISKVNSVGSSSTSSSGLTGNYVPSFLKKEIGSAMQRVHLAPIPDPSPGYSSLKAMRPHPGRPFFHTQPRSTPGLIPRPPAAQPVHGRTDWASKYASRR

[10] = target: Fibroblast growth factor receptor 4 (Homo sapiens, UniProt P22455); test: Selectivity interaction (KinomeScan (DiscoverX)) EUB0000607a FGFR4; conditions: at 10 µM
Fibroblast growth factor receptor 4, sequence (P22455 22-802 limits assumed): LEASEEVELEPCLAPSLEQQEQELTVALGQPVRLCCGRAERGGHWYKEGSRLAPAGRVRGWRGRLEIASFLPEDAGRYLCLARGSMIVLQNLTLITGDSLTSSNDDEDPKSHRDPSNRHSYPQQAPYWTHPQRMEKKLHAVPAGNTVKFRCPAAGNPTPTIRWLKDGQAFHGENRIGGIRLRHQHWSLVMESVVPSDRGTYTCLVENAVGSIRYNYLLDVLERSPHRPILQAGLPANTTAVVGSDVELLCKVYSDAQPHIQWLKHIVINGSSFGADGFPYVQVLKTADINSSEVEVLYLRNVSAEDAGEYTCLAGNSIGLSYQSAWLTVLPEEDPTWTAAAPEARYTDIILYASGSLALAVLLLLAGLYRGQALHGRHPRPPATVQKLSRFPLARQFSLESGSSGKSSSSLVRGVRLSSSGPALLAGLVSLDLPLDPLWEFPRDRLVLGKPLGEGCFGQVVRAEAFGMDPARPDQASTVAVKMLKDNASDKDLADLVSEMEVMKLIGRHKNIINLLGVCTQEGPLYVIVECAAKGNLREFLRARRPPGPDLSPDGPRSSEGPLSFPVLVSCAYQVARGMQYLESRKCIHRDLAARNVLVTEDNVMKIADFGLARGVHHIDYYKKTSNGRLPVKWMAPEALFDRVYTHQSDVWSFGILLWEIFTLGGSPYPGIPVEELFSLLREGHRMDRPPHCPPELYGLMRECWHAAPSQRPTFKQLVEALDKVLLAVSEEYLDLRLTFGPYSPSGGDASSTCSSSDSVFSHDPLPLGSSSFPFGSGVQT

Ribosomal protein S6 kinase alpha-2 (Homo sapiens), sequence (Q15349 whole entry): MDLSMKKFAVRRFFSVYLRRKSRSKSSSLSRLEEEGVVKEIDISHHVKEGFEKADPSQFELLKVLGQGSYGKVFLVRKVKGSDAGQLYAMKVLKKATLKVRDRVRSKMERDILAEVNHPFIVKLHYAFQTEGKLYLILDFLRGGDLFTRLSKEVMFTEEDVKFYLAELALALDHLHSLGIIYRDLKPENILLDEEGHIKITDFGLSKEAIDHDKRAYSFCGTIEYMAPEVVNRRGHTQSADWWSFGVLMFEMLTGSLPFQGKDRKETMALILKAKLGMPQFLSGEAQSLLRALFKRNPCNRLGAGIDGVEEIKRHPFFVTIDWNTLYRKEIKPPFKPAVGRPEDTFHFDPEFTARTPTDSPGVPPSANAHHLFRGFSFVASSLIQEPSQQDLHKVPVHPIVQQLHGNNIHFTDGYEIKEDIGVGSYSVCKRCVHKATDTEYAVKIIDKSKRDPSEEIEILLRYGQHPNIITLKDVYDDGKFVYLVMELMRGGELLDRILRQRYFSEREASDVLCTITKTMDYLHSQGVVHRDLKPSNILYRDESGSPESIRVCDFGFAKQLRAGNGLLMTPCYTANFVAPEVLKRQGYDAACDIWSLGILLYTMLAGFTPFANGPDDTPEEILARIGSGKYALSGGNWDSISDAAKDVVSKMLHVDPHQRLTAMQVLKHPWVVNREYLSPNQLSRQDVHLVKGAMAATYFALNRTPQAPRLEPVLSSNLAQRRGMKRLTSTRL
Phosphatidylinositol 4,5-bisphosphate 3-kinase catalytic subunit beta isoform (Homo sapiens), sequence (P42338 whole entry, looked up, canonical isoform): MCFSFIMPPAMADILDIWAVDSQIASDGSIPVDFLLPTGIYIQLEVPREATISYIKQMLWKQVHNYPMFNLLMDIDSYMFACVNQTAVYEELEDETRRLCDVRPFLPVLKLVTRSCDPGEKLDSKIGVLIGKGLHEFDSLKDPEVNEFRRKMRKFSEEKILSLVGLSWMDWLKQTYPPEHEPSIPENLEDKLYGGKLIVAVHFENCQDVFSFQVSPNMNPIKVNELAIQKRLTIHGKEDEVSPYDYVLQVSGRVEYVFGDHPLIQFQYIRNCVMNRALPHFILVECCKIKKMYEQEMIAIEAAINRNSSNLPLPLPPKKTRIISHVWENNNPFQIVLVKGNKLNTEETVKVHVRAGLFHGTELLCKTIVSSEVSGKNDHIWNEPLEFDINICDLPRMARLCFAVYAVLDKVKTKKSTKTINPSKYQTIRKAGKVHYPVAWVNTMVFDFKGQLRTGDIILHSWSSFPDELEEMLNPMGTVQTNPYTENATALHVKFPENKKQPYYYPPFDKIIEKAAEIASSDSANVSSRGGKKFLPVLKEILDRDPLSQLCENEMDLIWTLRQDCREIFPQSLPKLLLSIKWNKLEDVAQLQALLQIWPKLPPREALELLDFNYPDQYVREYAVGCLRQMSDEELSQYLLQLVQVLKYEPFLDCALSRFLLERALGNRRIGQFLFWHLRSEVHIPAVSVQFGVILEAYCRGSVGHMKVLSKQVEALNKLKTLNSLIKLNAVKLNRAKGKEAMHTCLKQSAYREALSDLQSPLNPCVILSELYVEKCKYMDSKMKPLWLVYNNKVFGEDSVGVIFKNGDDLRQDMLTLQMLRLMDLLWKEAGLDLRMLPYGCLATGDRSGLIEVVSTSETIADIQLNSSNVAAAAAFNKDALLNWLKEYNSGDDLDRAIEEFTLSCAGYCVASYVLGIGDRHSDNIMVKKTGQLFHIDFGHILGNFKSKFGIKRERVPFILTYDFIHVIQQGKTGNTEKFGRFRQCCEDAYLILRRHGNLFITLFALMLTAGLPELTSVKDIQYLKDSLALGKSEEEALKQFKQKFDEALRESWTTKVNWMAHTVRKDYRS
Serine/threonine-protein kinase SIK2 (Homo sapiens), sequence (Q9H0K1 whole entry, looked up, canonical isoform): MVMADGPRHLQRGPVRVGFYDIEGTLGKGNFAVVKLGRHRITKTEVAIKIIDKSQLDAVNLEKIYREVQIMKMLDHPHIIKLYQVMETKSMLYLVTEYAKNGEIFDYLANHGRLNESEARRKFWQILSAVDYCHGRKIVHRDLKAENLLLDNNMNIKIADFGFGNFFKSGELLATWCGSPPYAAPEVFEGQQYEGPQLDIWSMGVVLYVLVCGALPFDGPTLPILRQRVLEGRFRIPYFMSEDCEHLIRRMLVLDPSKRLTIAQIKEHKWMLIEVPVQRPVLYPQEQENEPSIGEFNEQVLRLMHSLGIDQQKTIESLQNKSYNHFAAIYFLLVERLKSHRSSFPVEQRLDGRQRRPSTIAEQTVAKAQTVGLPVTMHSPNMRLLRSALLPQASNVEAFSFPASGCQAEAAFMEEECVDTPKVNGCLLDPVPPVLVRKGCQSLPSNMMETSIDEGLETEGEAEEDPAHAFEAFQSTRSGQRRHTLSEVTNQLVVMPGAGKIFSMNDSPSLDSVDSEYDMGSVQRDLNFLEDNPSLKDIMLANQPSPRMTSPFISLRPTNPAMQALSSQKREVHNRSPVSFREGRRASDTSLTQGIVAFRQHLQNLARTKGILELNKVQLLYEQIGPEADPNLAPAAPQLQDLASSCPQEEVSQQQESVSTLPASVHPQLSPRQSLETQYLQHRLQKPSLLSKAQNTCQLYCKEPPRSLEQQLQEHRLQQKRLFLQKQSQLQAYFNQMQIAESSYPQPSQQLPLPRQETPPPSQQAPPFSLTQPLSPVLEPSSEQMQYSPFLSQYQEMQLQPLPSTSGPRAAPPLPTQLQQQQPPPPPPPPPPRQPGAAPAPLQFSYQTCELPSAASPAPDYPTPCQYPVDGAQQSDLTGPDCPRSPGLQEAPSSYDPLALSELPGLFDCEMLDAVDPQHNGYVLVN
Mitogen-activated protein kinase kinase kinase 20 (Homo sapiens), sequence (Q9NYL2 2-800 limits assumed): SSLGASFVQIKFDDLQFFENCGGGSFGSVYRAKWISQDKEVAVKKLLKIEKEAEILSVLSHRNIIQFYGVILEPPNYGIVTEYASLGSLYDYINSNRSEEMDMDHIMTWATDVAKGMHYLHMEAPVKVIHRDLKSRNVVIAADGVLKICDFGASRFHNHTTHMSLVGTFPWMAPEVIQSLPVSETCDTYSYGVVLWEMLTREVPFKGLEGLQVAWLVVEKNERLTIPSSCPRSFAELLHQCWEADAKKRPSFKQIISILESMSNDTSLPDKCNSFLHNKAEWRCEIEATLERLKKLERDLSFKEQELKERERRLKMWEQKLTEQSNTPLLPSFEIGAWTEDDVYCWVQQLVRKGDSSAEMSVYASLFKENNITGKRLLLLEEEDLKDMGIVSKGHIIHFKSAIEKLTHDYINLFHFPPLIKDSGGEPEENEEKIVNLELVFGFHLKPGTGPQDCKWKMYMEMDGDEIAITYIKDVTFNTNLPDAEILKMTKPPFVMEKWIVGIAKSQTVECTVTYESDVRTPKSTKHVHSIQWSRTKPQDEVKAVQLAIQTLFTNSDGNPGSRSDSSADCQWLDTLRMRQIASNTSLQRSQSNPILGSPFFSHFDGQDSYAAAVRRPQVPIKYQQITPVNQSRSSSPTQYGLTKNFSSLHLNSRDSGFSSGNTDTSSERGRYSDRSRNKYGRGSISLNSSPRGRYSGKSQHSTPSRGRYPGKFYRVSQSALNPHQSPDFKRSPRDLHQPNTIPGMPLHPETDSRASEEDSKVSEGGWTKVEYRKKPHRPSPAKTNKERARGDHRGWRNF
Tyrosine-protein kinase Fyn (Homo sapiens), sequence (P06241 2-537 limits assumed): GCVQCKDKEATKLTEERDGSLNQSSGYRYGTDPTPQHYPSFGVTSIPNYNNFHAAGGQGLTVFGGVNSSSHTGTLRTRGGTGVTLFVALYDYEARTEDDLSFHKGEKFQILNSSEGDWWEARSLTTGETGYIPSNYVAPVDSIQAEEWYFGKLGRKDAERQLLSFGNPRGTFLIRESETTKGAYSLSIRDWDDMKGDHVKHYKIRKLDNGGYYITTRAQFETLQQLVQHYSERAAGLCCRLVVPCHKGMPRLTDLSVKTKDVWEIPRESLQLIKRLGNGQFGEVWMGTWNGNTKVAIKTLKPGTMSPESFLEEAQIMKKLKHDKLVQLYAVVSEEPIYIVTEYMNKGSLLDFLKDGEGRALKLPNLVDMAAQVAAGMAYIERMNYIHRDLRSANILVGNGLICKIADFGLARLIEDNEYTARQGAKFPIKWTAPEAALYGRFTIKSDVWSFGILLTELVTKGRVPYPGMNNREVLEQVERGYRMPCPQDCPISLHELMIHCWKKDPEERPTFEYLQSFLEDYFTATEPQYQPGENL

Compound: COc1cc(Nc2nc(C)cc(-c3cnn4nc(OC)ccc34)n2)cc(C(F)(F)F)c1
- % of control [1]: 89%

Compound: CN(C)C/C=C/C(=O)Nc1ccc(C(=O)N2CCCC(Nc3ncc(Cl)c(-c4c[nH]c5ccccc45)n3)C2)cc1 (stereo unspecified)
- % of control [2]: 88%

- % of inhibition [3]: 2.07%
Compound: CC[C@@H]1[C@H](F)C(=O)N[C@@H]1COc1nccc2cc(C(N)=O)c(OC)cc12 [ZIMLOVISERTIB]

- % of inhibition [4]: -11.2%
Compound: Cn1cc(-n2cnc3c(NCc4nc5cc(Cl)c(Cl)cc5[nH]4)nc(N4CCOCC4)nc32)cn1

Compound: COCC(=O)NC/C=C/c1ccc2ncnc(Nc3ccc(Oc4ccc(C)nc4)c(C)c3)c2c1 [CP-724714]
- % of control [5]: 100%
- % of control [6]: 100%

Compound: COc1cc(N(C)c2ccnc3ccc(C(F)(F)F)cc23)cc(OC)c1OC
- % binding [7]: 91%

- % of inhibition [8]: 25.4%
Compound: CC[C@@H](Nc1c(C#N)c(-c2ccc(-c3cccc(C)c3F)cc2)nc2cnccc12)C(=O)O [BAY-091]

Compound: C=CC(=O)Nc1cc(-n2c(=O)ccc3cnc4ccc(-c5ccc(NS(C)(=O)=O)cc5)cc4c32)ccc1C
- % of control ([9]; at 1 µM): 100%
- % of control ([9]; at 10 µM): 100%

Compound: CNC(=O)Nc1ccc(-c2nc(N3CC4CCC(C3)O4)c3cnn(C4CCC5(CC4)OCCO5)c3n2)cc1
- % of control [10]: 62%
